Tests used:
CCRF-CEM = assay: NCI SRB cytotoxicity, leukemia CCRF-CEM; assay type: cell-based; conditions: Homo sapiens, 48 h exposure
Protocol: (§1) The pyrazolochalcones (7e, 8e, 10e, 11e, 12e, 13e and 8f) have been tested against fifty nine human tumor cell lines derived from nine cancer types (leukemia, non-small cell lung cancer, colon cancer, CNS cancer, melanoma, ovarian cancer, renal cancer, prostate cancer and breast cancer) as per the NCI protocol. For each compound, dose response curves for individual cell lines have been measured at a minimum of five concentrations at 10 fold dilutions. A protocol of 48 h continuous drug exposure has been used, and a sulforhodamine B (SRB) protein assay has been used to estimate cell viability or growth. The concentration for 50% cell growth inhibition (GI50), 50% cell death (LC50, 50% growth) and total cell growth inhibition (TGI, 0% growth) values were tabulated (Table-1). DMSO was used as control to calculate the values of GI50, LC50 and TGI. The compounds 7e, 8e, 10e, 11e, 12e, 13e and 8f has been evaluated for their in vitro cytotoxicity in […] cell lines from nine human cancer types of leukemia (K-562, SR), non-small cell lung (Hop-62, NCI-H226, NCI-H522), colon (HCT-116, HCT-15, HCC-2998), CNS (SF-539), melanoma (SK-MEL-5, UACC-62, M14), ovarian (IGROV1), renal (A498), prostate (PC3) and breast (BT-549, MDA-MB-435, HS578T) origin. The results are expressed as percent of cell growth determined relative to that of untreated control cells (Table 2).

HL-60(TB) = assay: NCI SRB cytotoxicity, leukemia HL-60(TB); assay type: cell-based; conditions: Homo sapiens, 48 h exposure
Protocol: as §1

K-562 = assay: NCI SRB cytotoxicity, leukemia K-562; assay type: cell-based; conditions: Homo sapiens, K562, 48 h exposure
Protocol: as §1

MOLT-4 = assay: NCI SRB cytotoxicity, leukemia MOLT-4; assay type: cell-based; conditions: Homo sapiens, 48 h exposure
Protocol: as §1

A549/ATCC = assay: NCI SRB cytotoxicity, non-small cell lung A549/ATCC; assay type: cell-based; conditions: Homo sapiens, 48 h exposure
Protocol: as §1

NCI-H23 = assay: NCI SRB cytotoxicity, non-small cell lung NCI-H23; assay type: cell-based; conditions: Homo sapiens, 48 h exposure
Protocol: as §1

NCI-H460 = assay: NCI SRB cytotoxicity, non-small cell lung NCI-H460; assay type: cell-based; conditions: Homo sapiens, 48 h exposure
Protocol: as §1

HCT-116 = assay: NCI SRB cytotoxicity, colon HCT-116; assay type: cell-based; conditions: Homo sapiens, 48 h exposure
Protocol: as §1

SF-539 = assay: NCI SRB cytotoxicity, CNS SF-539; assay type: cell-based; conditions: Homo sapiens, 48 h exposure
Protocol: as §1

SNB-75 = assay: NCI SRB cytotoxicity, CNS SNB-75; assay type: cell-based; conditions: Homo sapiens, 48 h exposure
Protocol: as §1

SK-MEL-2 = assay: NCI SRB cytotoxicity, melanoma SK-MEL-2; assay type: cell-based; conditions: Homo sapiens, 48 h exposure
Protocol: as §1

UACC-257 = assay: NCI SRB cytotoxicity, melanoma UACC-257; assay type: cell-based; conditions: Homo sapiens, 48 h exposure
Protocol: as §1

UACC-62 = assay: NCI SRB cytotoxicity, melanoma UACC-62; assay type: cell-based; conditions: Homo sapiens, 48 h exposure
Protocol: as §1

OVCAR-3 = assay: NCI SRB cytotoxicity, ovarian OVCAR-3; assay type: cell-based; conditions: Homo sapiens, 48 h exposure
Protocol: as §1

NCI/ADR-RES = assay: NCI SRB cytotoxicity, ovarian NCI/ADR-RES; assay type: cell-based; conditions: Homo sapiens, 48 h exposure
Protocol: as §1

RXF 393 = assay: NCI SRB cytotoxicity, renal RXF 393; assay type: cell-based; conditions: Homo sapiens, 48 h exposure
Protocol: as §1

SN12C = assay: NCI SRB cytotoxicity, renal SN12C; assay type: cell-based; conditions: Homo sapiens, 48 h exposure
Protocol: as §1

TK-10 = assay: NCI SRB cytotoxicity, renal TK-10; assay type: cell-based; conditions: Homo sapiens, 48 h exposure
Protocol: as §1

UO-31 = assay: NCI SRB cytotoxicity, renal UO-31; assay type: cell-based; conditions: Homo sapiens, 48 h exposure
Protocol: as §1

PC-3 = assay: NCI SRB cytotoxicity, prostate PC-3; assay type: cell-based; conditions: Homo sapiens, 48 h exposure
Protocol: as §1

DU-145 = assay: NCI SRB cytotoxicity, prostate DU-145; assay type: cell-based; conditions: Homo sapiens, 48 h exposure
Protocol: as §1

MCF7 = assay: NCI SRB cytotoxicity, breast MCF7; assay type: cell-based; conditions: Homo sapiens, 48 h exposure
Protocol: as §1

MDA-MB-231/ATCC = assay: NCI SRB cytotoxicity, breast MDA-MB-231/ATCC; assay type: cell-based; conditions: Homo sapiens, 48 h exposure
Protocol: as §1

HS 578T = assay: NCI SRB cytotoxicity, breast HS 578T; assay type: cell-based; conditions: Homo sapiens, 48 h exposure
Protocol: as §1

Leukemia = assay: NCI SRB cytotoxicity, leukemia panel average; assay type: cell-based, human; conditions: average of cell lines; for CC50: read-out: Log10 LC50 (concentration in mol/L causing 50% cell death) (converted)
Protocol: as §1
(§2) Each cancer type represents the average of six to eight different cancer cell lines.

Non-small cell lung = assay: NCI SRB cytotoxicity, non-small cell lung panel average; assay type: cell-based, human; conditions: average of cell lines; for LC50: read-out: Log10 LC50 (concentration in mol/L causing 50% cell death) (converted)
Protocol: as §1, §2

Colon = assay: NCI SRB cytotoxicity, colon panel average; assay type: cell-based, human; conditions: average of cell lines; for LC50: read-out: Log10 LC50 (concentration in mol/L causing 50% cell death) (converted)
Protocol: as §1, §2

Melanoma = assay: NCI SRB cytotoxicity, melanoma panel average; assay type: cell-based, human; conditions: average of cell lines; for LC50: read-out: Log10 LC50 (concentration in mol/L causing 50% cell death) (converted)
Protocol: as §1, §2

Ovarian = assay: NCI SRB cytotoxicity, ovarian panel average; assay type: cell-based, human; conditions: average of cell lines; for CC50: read-out: Log10 LC50 (concentration in mol/L causing 50% cell death) (converted)
Protocol: as §1, §2

Renal = assay: NCI SRB cytotoxicity, renal panel average; assay type: cell-based, human; conditions: average of cell lines; for CC50: read-out: Log10 LC50 (concentration in mol/L causing 50% cell death) (converted)
Protocol: as §1, §2

Prostate = assay: NCI SRB cytotoxicity, prostate panel average; assay type: cell-based, human; conditions: average of cell lines
Protocol: as §1, §2

HOP92 = assay: NCI SRB cytotoxicity, non-small cell lung HOP92; assay type: cell-based; conditions: Homo sapiens, HOP-92, 48 h exposure
Protocol: as §1

[1] = Homo sapiens, read-out: Log10 GI50 (concentration in mol/L causing 50% growth inhibition) (converted)

COc1cc(-c2cc(/C=C/C(=O)c3ccc4c(c3)OCO4)[nH]n2)cc(OC)c1OC [11e, (E)-1-(benzo[d][1,3]dioxol-5-yl)-3-(3-(3,4,5-trimethoxyphenyl)-1H-pyrazol-5-yl)prop-2-en-1-one] showed a GI50 (CCRF-CEM) of 1570 nM, a GI50 (HL-60(TB)) of 2170 nM and a GI50 (K-562) of 3200 nM. The GI50 (MOLT-4) was 2980 nM, the GI50 (A549/ATCC) was 4320 nM and the GI50 (NCI-H23) was 2020 nM. It also gave a GI50 (NCI-H460) of 2120 nM, a GI50 (HCT-116) of 1850 nM and a GI50 (SF-539) of 2070 nM. For the same compound, the GI50 (SNB-75) was 2010 nM, the GI50 (SK-MEL-2) was 10300 nM and the GI50 (UACC-257) was 2460 nM. It also gave a GI50 (UACC-62) of 4670 nM, a GI50 (OVCAR-3) of 3380 nM and a GI50 (NCI/ADR-RES) of 4230 nM. For the same compound, the GI50 (RXF 393) was 1480 nM, the GI50 (SN12C) was 3940 nM and the GI50 (TK-10) was 2330 nM. It also gave a GI50 (UO-31) of 1910 nM, a GI50 (PC-3) of 2810 nM and a GI50 (DU-145) of 2720 nM. For the same compound, the GI50 (MCF7) was 1670 nM, the GI50 (MDA-MB-231/ATCC) was 3500 nM and the GI50 (HS 578T) was 3710 nM. For the same compound, the CC50 (Leukemia; Homo sapiens) was 0.0001 mol/L, the “Log10 GI50 (concentration in mol/L causing 50% growth inhibition)” value (Leukemia) was −4.91 mol/L and the “Log10 TGI (concentration in mol/L causing total growth inhibition (0% growth))” value (Leukemia) was −5.00 mol/L. The LC50 (Non-small cell lung; Homo sapiens) was 53700 nM, the “Log10 GI50 (concentration in mol/L causing 50% growth inhibition)” value (Non-small cell lung) was −4.27 mol/L and the “Log10 TGI (concentration in mol/L causing total growth inhibition (0% growth))” value (Non-small cell lung) was −4.70 mol/L. For the same compound, the LC50 (Colon; Homo sapiens) was 21900 nM, the “Log10 GI50 (concentration in mol/L causing 50% growth inhibition)” value (Colon) was −4.66 mol/L and the “Log10 TGI (concentration in mol/L causing total growth inhibition)” value (Colon) was −5.33 mol/L. For the same compound, the LC50 (Melanoma; Homo sapiens) was 72400 nM, the “Log10 GI50 (concentration in mol/L causing 50% growth inhibition)” value (Melanoma) was −4.14 mol/L and the “Log10 TGI (concentration in mol/L causing total growth inhibition)” value (Melanoma) was −4.52 mol/L. The CC50 (Ovarian; Homo sapiens) was 100000 nM, the “Log10 GI50 (concentration in mol/L causing 50% growth inhibition)” value (Ovarian) was −4 mol/L and the “Log10 TGI (concentration in mol/L causing total growth inhibition (0% growth))” value (Ovarian) was −4.38 mol/L. For the same compound, the CC50 (Renal; Homo sapiens) was 42700 nM, the “Log10 GI50 (concentration in mol/L causing 50% growth inhibition)” value (Renal) was −4.37 mol/L and the “Log10 TGI (concentration in mol/L causing total growth inhibition (0% growth))” value (Renal) was −4.94 mol/L. The CC50 (Prostate; Homo sapiens, read-out: Log10 LC50 (concentration in mol/L causing 50% cell death) (converted)) was 0.0001 mol/L, the “Log10 GI50 (concentration in mol/L causing 50% growth inhibition)” value (Prostate) was −4 mol/L and the “Log10 TGI (concentration in mol/L causing total growth inhibition (0% growth))” value (Prostate) was −4.94 mol/L.
COc1ccc(C(=O)/C=C/c2cc(-c3cc(OC)c(OC)c(OC)c3)n[nH]2)cc1 [7e, (E)-1-(4-methoxyphenyl)-3-(3-(3,4,5-trimethoxyphenyl)-1H-pyrazol-5-yl)prop-2-en-1-one] showed a GI50 (CCRF-CEM) of 1420 nM, a GI50 (HL-60(TB)) of 2160 nM and a GI50 (K-562) of 2320 nM. For the same compound, the GI50 (MOLT-4) was 2670 nM, the GI50 (A549/ATCC) was 2270 nM and the GI50 (HOP92) was 1060 nM. It also gave a GI50 (NCI-H23) of 3040 nM, a GI50 (NCI-H460) of 1720 nM and a GI50 (HCT-116) of 1730 nM. The GI50 (SF-539) was 1620 nM, the GI50 (SNB-75) was 1490 nM and the GI50 (SK-MEL-2) was 4140 nM. It also gave a GI50 (UACC-257) of 1750 nM, a GI50 (UACC-62) of 1850 nM and a GI50 (OVCAR-3) of 1740 nM. It also gave a GI50 (NCI/ADR-RES) of 2700 nM, a GI50 (RXF 393) of 1270 nM and a GI50 (SN12C) of 1810 nM. It also gave a GI50 (TK-10) of 2220 nM, a GI50 (UO-31) of 1450 nM and a GI50 (PC-3) of 1510 nM. It also gave a GI50 (DU-145) of 1430 nM, a GI50 (MCF7) of 1150 nM and a GI50 (MDA-MB-231/ATCC) of 1880 nM. It also gave a GI50 (HS 578T) of 3600 nM, a GI50 (Leukemia; [1]) of 1200 nM and a CC50 (Leukemia; Homo sapiens) of 0.0001 mol/L. The “Log10 TGI (concentration in mol/L causing total growth inhibition (0% growth))” value (Leukemia) was −5.18 mol/L, the GI50 (Non-small cell lung; [1]) was 1820 nM and the LC50 (Non-small cell lung; Homo sapiens) was 21900 nM. The “Log10 TGI (concentration in mol/L causing total growth inhibition (0% growth))” value (Non-small cell lung) was −5.36 mol/L, the GI50 (Colon; [1]) was 1740 nM and the LC50 (Colon; Homo sapiens) was 19100 nM. The “Log10 TGI (concentration in mol/L causing total growth inhibition)” value (Colon) was −5.41 mol/L, the GI50 (Melanoma; [1]) was 2090 nM and the LC50 (Melanoma; Homo sapiens) was 36300 nM. The “Log10 TGI (concentration in mol/L causing total growth inhibition)” value (Melanoma) was −5.32 mol/L, the GI50 (Ovarian; [1]) was 2400 nM and the CC50 (Ovarian; Homo sapiens) was 47900 nM. For the same compound, the “Log10 TGI (concentration in mol/L causing total growth inhibition (0% growth))” value (Ovarian) was −5.15 mol/L, the GI50 (Renal; [1]) was 1820 nM and the CC50 (Renal; Homo sapiens) was 18200 nM. For the same compound, the “Log10 TGI (concentration in mol/L causing total growth inhibition (0% growth))” value (Renal) was −5.43 mol/L, the GI50 (Prostate; [1]) was 1480 nM and the “Log10 TGI (concentration in mol/L causing total growth inhibition (0% growth))” value (Prostate) was −5.55 mol/L.
